Measured values from US4026891A, “5- Or 6-pyridazinyl-benzimidazoles and salts thereof” (Boehringer Ingelheim GmbH, priority 1974, dated 1977).
Structures can show the parent of a compound that is named as a salt.

Columns and labels:
[1] = tested on: isolated, spontaneously beating auricles of the guinea pig; assay: positive inotropic (cardiotonic) activity on isolated auricles; format: cell-based; details: Cavia porcellus, 10^-5 gm/ml, 30° C., average of at least 5 auricles, read-out: Increase in the force of contraction in %
Procedure: 3. Determination of the positive inotropic (cardiotonic) activity
The positive inotropic activity was determined as the strengthening effect upon the force of contraction of isolated, spontaneously beating auricles of the guinea pig. Freshly isolated auricles were put into a bath of 100 ml of a tyrode solution at a temperature of 30° C. The tyrode solution was infused with carbogen (95% of O2 and 5% of CO2). The spontaneous contractions of the auricles were registered isometrically with a Statham-Force-Displacement-transducer FT 03 C on a Grass polygraph. The auricles were pre-stretched with 1 gm. After an equilibration period of 20-30 minutes the test compound was added at a concentration of 10^-^5 gm/ml.

[2] = tested on: thrombocyte aggregation in platelet-rich plasma of healthy human donors; assay: thrombocyte (platelet) aggregation inhibiting activity, method of Born and Cross, collagen-induced; format: cell-based; details: 10^-4 mol/l, optical density, read-out: Inhibition in % after addition of 10^-4 mol/l, O.D.
Procedure: (1) Determination of thrombocyte aggregation inhibiting activity by the method of Born and Cross [see J. Physiol. 170, 397 (1964)]:
The platelet aggregation inhibiting activity was determined in the platelet-rich plasma of healthy human donors. The rate of decline of the optical density of the platelet suspension was measured and recorded photometrically after the addition of commercial collagen containing 1 mgm of collagen fibrils per ml. From the angle of inclination of the density curve, the rate of aggregation was estimated (Vmax). The optical density was taken as the point on the curve where most light was transmitted (O.D.). To provoke maximum aggregation about 0.01 ml of the collagen solution was added to 1 ml of platelet-rich plasma.

[3] = tested on: mongrel dogs (arterial blood pressure); assay: hypotensive activity in anesthetized mongrel dogs; format: in vivo, dog; details: average of 3 tests
Procedure: (2) Determination of the hypotensive activity:
The hypotensive activity was determined in mongrel dogs of both sexes (body weight between 19 and 26 kg) under chloralose/urethane (54+ 270 mgm/kg i.v.) and nembutal (10 mgm/kg i.v.) anesthesia. After tracheotomy, the animals were attached to a Harvard artificial respirator using normal air. The arterial blood pressure was measured in the arteria femoralis by a Statham pressure transducer P 23 Dc and registered on a Grass polygraph. The compound under investigation was administered in aqueous solution by intravenous injection into the vena saphena.

SMILES	activation at 10 µg/mL [1]	inhibition at 100 µM [2]	Decrease in blood pressure (figure after the slash) ([3]; 1.0 mgm/kg i.v.)	Decrease in blood pressure (figure before the slash) ([3]; 1.0 mgm/kg i.v.)	further results
O=C1CCC(c2ccc3nc(-c4ccccc4F)[nH]c3c2)=NN1 [E, 2-(o-Fluoro-phenyl)-5(6)-(3'-oxo-4',5'-dihydro-2'H-6'-pyridazinyl)-benzimidazole hydrochloride]	15%				
O=C1CCC(c2ccc3nc(C(F)(F)F)[nH]c3c2)=NN1 [F, 2-trifluoromethyl-5(6)-(3'-oxo-4',5'-dihydro-2'H-6'-pyridazinyl)-benzimidazole]		100%			
Cc1nc2ccc(-c3ccc(N4CCOCC4)nn3)cc2[nH]1 [D, 2-Methyl-5(6)-(3'-morpholino-6'-pyridazinyl)-benzimidazole]		89%			
O=C1CCC(c2ccc3nc[nH]c3c2)=NN1 [H, 5(6)-(3'-oxo-4',5'-dihydro-2'H-6'-pyridazinyl)-benzimidazole]		100%			
COc1ccc(-c2nc3ccc(C4=NNC(=O)CC4)cc3[nH]2)c(OC)c1 [C, 2-(o,p-Dimethoxy-phenyl)-5(6)-(3'-oxo-4',5'-dihydro-2'H-6'-pyridazinyl)-benzimidazole]	12%		44 mm Hg	33 mm Hg	Decrease in blood pressure (figure after the slash) ([3]; 0.25 mgm/kg i.v.): 44 mm Hg; Decrease in blood pressure (figure before the slash) ([3]; 0.25 mgm/kg i.v.): 17 mm Hg
COc1ccc(-c2nc3ccc(-c4ccc(=O)[nH]n4)cc3[nH]2)cc1 [K, 2-(p-Methoxy-phenyl)-5(6)-(3'-oxo-2'H-6'-pyridazinyl)-benzimidazole methanesulfonate]	33%				
COc1ccc(-c2nc3ccc(C4=NNC(=O)CC4)cc3[nH]2)cc1 [Compound I, 2-(p-Methoxy-phenyl)-5(6)-(3'-oxo-4',5'-dihydro-2'H-6'-pyridazinyl)-benzimidazole]		100%			
Cc1nc2ccc(C3=NNC(=O)CC3)cc2[nH]1 [Compound A, 2-Methyl-5(6)-(3'-oxo-4',5'-dihydro-2'H-6'-pyridazinyl)-benzimidazole hydrochloride]	30%	100%	38 mm Hg	26 mm Hg	Decrease in blood pressure (figure after the slash) ([3]; 0.25 mgm/kg i.v.): 9 mm Hg; Decrease in blood pressure (figure before the slash) ([3]; 0.25 mgm/kg i.v.): 7 mm Hg
Cc1nc2ccc(-c3ccc(=O)[nH]n3)cc2[nH]1 [B, 2-Methyl-5(6)-(3'-oxo-2'H-6'-pyridazinyl)-benzimidazole hydrochloride]	20%	100%	32 mm Hg	33 mm Hg	Decrease in blood pressure (figure after the slash) ([3]; 0.5 mgm/kg i.v.): 25 mm Hg; Decrease in blood pressure (figure before the slash) ([3]; 0.5 mgm/kg i.v.): 18 mm Hg
Cc1nc2ccc(C3=NN(C)C(=O)CC3)cc2[nH]1 [G, 2-Methyl-5(6)-(2'-methyl-3'-oxo-4',5'-dihydro-2'H-6'-pyridazinyl)-benzimidazole hydrochloride]	13%				
